Assay results: ChEMBL document CHEMBL1201862, “PubChem BioAssay data set” (2004)
Calls of active or inactive are those of the source.

How the values were obtained:
[1] = biological target: Induced myeloid leukemia cell differentiation protein Mcl-1 (Homo sapiens, UniProt Q07820); experiment: MCL1-BIM BH3 interaction inhibitors, dose response, biochemical, fluorescence polarization, BIM-BH3 peptide, 1536-well (AID 2217)
Bcl-2-like protein 1 = Bcl-2-like protein 1 (Homo sapiens, UniProt Q07817); experiment: BCL-XL inhibitors, dose response, selectivity assay for MCL1 inhibitor project, biochemical, fluorescence polarization, 1536-well (AID 2218)
[2] = biological target: T1, Carboxy-terminal domain RNA polymerase II polypeptide A small phosphatase 1 (Homo sapiens, UniProt Q9GZU7); experiment: inhibitors of CTDSP1, concentration-response testing, biochemical assay, absorbance-based, actives from ultra-high-throughput screening (AID 540297); assay type: functional
T1 sequence (Q9GZU7 whole entry): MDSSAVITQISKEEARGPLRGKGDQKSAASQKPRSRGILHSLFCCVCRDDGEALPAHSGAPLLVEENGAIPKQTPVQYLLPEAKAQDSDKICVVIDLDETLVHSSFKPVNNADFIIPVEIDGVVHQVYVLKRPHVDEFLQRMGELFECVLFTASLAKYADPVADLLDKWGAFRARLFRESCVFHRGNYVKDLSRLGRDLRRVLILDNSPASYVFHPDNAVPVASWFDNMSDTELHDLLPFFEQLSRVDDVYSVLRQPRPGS

[3] = biological target: T2, Small ubiquitin-related modifier 1 (Homo sapiens, UniProt P63165); experiment: inhibitors of SUMO1 peptide binding, dose response, biochemical, fluorescence polarization, uHTS hits (AID 624382); assay type: functional; settings: read-out: IC50_Mean
[4] = biological target: T2, Small ubiquitin-related modifier 1; experiment: inhibitors of SUMO1 partner interactions, dose response, biochemical, FRET (AID 624383); assay type: functional; settings: read-out: IC50_Mean
Caspase-6 = biological target: T3, Caspase-6 (Homo sapiens, UniProt P55212); experiment: human caspase-6 inhibitors, dose response, biochemical, VEID-R110 fluorescence, cherry-pick (AID 720632)
T3 sequence (P55212 whole entry): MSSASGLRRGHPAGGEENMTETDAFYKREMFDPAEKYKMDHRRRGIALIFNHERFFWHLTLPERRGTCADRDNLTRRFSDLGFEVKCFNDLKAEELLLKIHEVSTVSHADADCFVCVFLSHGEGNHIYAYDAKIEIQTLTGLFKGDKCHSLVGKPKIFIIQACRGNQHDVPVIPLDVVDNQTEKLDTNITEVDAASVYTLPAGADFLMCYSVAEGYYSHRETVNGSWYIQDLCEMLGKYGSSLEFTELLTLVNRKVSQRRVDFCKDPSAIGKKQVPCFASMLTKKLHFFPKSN

Vero [5] = experiment: host cell cytotoxicity of antiviral hits, dose response, cytotoxicity control for West Nile virus antiviral project, secondary assay (AID 1650); assay type: functional; settings: Chlorocebus sabaeus
Vero [6] = experiment: cells; assay type: functional; settings: Chlorocebus sabaeus
[7] = biological target: SWI/SNF-related matrix-associated actin-dependent regulator of chromatin subfamily A member 2 (Homo sapiens, UniProt P51531); experiment: Luminescence-based cell-based high throughput dose response assay to identify activators of the function of SWI/SNF related, matrix associated, actin dependent regulator of chromatin, subfamily a, member 2 (SMARCA2, BRM).; assay type: functional
[8] = Counterscreen for activators of the function of SWI/SNF related, matrix associated, actin dependent regulator of chromatin, subfamily a, member 2 (SMARCA2, BRM): Luminescence-based cell-based high throughput dose response assay to identify non-selective compounds using the VP16 reporter assay.; assay type: functional
[9] = biological target: Glyceraldehyde-3-phosphate dehydrogenase (Homo sapiens, UniProt P04406)
Bcl-2-related protein A1 [10] = biological target: T4, Bcl-2-related protein A1 (Mus musculus, UniProt Q07440); experiment: Bfl-1 inhibitors blocking BH3 peptide binding, confirmation, biochemical, TR-FRET, mouse Bfl-1 (AID 621);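 also: TR-FRET binding of GST-Bfl-1 to FITC-labelled Bid peptide via terbium antibody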
T4 sequence (Q07440 whole entry): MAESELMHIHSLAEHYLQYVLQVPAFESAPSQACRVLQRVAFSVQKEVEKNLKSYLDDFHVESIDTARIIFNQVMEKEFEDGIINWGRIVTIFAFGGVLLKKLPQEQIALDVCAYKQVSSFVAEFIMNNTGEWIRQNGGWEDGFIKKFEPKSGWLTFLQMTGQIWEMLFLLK

Bcl-2-related protein A1 [11] = biological target: T4, Bcl-2-related protein A1; experiment: Bfl-1 binding inhibitors, SAR follow-up, biochemical, fluorescence polarization (AID 1070)
NADPH oxidase 1 = NADPH oxidase 1 (Homo sapiens, UniProt Q9Y5S8); experiment: Late-stage luminescence-based cell-based dose response assay to identify inhibitors of NADPH oxidase 1 (NOX1): Synthesized analogs 2.; assay type: functional
[12] = M. tuberculosis H37Rv growth inhibitors, H37Rv strain (AID 1626); assay type: functional
[13] = system: Streptococcus sp. 'group A'; experiment: growth inhibition of control SK(-) GAS strain, dose response, counter-screen for streptokinase expression inhibitor project, luminescence, kanamycin, BacTiterGlo, confirmation (AID 1900); assay type: functional, organism-based
[14] = Luminescence Cell-Based Dose Response HTS to Identify Inhibitors of 5'UTR Stem-Loop Driven Prion Protein mRNA Translation in H4 Neuroglioblastoma Cells. [Related pubchem assays: 1827 (Project Summary), 1813 (Primary HTS)]; assay type: functional
Streptokinase A = biological target: T5, Streptokinase A (Streptococcus pyogenes serotype M1, UniProt P10520); experiment: S. pyogenes streptokinase expression inhibitors, potency, dose response, plasminogen activation absorbance, OD405 (AID 1914); assay type: functional, Streptococcus pyogenes M1 GAS;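 also: secreted streptokinase activity via plasminogen activation per viability signal from cell pellet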
T5 sequence (P10520 whole entry): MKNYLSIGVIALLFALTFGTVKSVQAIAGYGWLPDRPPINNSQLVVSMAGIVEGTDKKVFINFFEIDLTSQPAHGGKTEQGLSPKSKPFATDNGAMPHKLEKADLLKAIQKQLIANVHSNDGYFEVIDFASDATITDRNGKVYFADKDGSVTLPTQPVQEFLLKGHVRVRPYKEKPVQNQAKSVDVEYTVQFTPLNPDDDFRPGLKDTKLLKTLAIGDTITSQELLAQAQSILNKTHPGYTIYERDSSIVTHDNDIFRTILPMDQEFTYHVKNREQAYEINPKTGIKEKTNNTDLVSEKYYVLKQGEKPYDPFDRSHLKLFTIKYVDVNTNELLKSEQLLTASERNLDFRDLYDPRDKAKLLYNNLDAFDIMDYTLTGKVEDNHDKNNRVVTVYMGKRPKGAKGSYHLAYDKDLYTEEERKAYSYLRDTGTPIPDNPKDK

[15] = cytotoxicity in HPDE-C7 cells, cell-based, fluorescence, HTS (AID 430); assay type: functional; settings: Homo sapiens
[16] = cytotoxicity in KRAS-transformed pancreatic duct cells, primary screen, cell-based, fluorescence, HTS (AID 431); assay type: functional; settings: Homo sapiens;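 also: cell line used: HPDE-C7K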
[17] = growth suppression of PTEN-null colon cells, dose response, cell-based, HCT116 PTEN knockout (AID 1047); assay type: functional;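 also: HCT116 colon tumor cells with PTEN knocked out; cells exposed to compound for 60 hours before readout; potency for loss of cell viability measured by luminescence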
Galanin receptor type 2 = Galanin receptor type 2 (Homo sapiens, UniProt O43603); experiment: Dose Response cell-based high-throughput screening assay to identify agonists of galanin receptor 2 (GALR2). [Related pubchem assays: 864 ]; assay type: functional
[18] = growth suppression of beta-catenin-knockout colon cells, dose response, cell-based, HCT116, human colon tumor (AID 1045); assay type: functional;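 also: HCT116 colon tumor cells with beta catenin knocked out; cells exposed to compound for 60 hours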
Streptococcus = experiment: Group A Streptococcus viability loss, dose response, counter-screen for streptokinase expression inhibitor project, luminescence, BacTiterGlo (AID 1915); assay type: functional, organism-based;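 also: potency for reduction of bacterial viability or growth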
[19] = biological target: Voltage-dependent T-type calcium channel subunit alpha-1H (Homo sapiens, UniProt O95180); assay type: functional;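 also: channel activity triggered by adding a high calcium stimulation buffer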
INS1 = experiment: beta cell apoptosis inhibitors, cytokine rescue, dose response, luminescence, retest (AID 449756); assay type: functional, cell-based; settings: Rattus norvegicus;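 also: cell death triggered by IL-1 beta plus TNF-alpha plus IFN-gamma mixture; protective hits raise ATP signal compared with cytokine alone wells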
[20] = biological target: Dual specificity tyrosine-phosphorylation-regulated kinase 1A (Rattus norvegicus, UniProt Q63470); assay type: biochemical, Homo sapiens
P388/ADR = experiment: cells; assay type: functional; settings: Mus musculus
SN12K1 = experiment: cells; assay type: functional; settings: Homo sapiens
P388 = experiment: cells; assay type: functional; settings: Mus musculus
Cytochrome P450 2C9 = Cytochrome P450 2C9 (Homo sapiens, UniProt P11712); settings: Potency
Sequence of Cytochrome P450 2C9 (P11712 whole entry): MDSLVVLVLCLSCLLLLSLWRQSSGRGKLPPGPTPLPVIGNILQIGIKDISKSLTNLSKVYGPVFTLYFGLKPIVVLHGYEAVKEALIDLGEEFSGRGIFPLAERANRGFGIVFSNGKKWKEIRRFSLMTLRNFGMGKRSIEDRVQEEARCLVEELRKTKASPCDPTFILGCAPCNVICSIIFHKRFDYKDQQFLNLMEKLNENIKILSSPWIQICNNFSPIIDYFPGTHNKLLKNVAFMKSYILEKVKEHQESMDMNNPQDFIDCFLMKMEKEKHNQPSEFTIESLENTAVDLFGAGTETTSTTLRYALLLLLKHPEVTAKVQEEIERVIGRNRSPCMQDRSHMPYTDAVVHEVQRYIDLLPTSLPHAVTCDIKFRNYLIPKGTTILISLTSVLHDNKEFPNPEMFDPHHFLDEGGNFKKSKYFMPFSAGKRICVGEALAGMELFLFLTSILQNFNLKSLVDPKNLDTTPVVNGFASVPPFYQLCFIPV

T2 sequence (P63165 whole entry): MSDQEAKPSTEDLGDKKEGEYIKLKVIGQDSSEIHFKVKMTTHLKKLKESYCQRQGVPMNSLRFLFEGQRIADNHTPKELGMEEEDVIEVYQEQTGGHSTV
Sequence of Glyceraldehyde-3-phosphate dehydrogenase (P04406 whole entry): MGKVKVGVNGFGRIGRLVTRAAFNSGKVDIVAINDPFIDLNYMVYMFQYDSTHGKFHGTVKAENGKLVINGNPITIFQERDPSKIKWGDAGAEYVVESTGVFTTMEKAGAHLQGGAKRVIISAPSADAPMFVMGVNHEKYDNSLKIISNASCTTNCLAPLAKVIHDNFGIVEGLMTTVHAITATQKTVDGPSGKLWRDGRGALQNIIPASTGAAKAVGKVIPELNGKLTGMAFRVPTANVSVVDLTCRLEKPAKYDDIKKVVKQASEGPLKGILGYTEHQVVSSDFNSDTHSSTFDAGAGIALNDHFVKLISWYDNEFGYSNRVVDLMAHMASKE
Sequence of SWI/SNF-related matrix-associated actin-dependent regulator of chromatin subfamily A member 2 (P51531 whole entry): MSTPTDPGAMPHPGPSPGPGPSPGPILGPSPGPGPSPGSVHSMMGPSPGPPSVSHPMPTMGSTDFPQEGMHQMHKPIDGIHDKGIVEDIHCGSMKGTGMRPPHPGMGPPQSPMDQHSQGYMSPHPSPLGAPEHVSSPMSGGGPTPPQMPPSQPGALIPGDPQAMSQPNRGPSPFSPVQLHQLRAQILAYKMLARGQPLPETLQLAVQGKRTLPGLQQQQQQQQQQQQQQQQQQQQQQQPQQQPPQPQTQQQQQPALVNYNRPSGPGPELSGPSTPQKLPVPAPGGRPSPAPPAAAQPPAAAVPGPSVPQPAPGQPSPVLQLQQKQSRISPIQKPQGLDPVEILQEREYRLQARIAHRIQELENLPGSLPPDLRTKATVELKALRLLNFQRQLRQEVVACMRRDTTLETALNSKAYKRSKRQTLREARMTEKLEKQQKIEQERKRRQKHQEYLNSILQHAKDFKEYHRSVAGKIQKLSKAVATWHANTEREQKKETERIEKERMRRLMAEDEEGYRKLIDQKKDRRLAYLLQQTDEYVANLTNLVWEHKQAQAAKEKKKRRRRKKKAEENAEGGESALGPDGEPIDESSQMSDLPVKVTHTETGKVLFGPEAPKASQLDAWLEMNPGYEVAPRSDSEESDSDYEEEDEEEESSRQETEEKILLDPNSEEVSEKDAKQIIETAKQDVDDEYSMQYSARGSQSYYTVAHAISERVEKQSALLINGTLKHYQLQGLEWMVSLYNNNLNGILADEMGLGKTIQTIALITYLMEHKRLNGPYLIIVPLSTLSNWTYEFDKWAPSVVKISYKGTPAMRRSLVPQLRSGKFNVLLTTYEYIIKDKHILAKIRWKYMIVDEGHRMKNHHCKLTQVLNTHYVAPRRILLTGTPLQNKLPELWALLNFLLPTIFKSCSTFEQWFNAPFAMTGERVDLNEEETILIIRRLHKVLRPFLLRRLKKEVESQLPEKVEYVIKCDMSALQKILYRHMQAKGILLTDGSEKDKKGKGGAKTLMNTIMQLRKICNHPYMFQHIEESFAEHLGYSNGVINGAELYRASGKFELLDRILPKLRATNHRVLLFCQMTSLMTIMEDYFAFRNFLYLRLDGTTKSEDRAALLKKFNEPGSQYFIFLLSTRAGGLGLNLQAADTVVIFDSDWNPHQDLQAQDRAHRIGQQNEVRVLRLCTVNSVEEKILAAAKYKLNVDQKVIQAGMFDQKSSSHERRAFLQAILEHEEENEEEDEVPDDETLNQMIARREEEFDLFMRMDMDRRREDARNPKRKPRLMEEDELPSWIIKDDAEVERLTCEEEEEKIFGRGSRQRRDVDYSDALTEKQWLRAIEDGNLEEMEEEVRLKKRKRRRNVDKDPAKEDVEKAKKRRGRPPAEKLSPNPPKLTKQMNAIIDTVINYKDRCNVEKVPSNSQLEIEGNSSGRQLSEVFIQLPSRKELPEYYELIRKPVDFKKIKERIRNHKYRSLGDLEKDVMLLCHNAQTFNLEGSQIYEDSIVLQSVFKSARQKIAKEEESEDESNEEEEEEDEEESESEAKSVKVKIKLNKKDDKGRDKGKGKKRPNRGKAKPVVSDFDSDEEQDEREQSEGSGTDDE
Sequence of Galanin receptor type 2 (O43603 whole entry): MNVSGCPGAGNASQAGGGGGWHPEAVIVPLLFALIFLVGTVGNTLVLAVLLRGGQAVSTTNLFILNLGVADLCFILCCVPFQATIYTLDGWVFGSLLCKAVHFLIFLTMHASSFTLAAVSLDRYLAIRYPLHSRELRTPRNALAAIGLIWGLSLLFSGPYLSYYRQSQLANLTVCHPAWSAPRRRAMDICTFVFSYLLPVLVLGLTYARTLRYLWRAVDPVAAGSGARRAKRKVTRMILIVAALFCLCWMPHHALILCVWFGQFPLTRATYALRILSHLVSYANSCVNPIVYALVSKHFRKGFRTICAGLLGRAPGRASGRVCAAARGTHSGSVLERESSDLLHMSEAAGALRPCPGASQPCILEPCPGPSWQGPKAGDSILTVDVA
Sequence of Induced myeloid leukemia cell differentiation protein Mcl-1 (Q07820 whole entry): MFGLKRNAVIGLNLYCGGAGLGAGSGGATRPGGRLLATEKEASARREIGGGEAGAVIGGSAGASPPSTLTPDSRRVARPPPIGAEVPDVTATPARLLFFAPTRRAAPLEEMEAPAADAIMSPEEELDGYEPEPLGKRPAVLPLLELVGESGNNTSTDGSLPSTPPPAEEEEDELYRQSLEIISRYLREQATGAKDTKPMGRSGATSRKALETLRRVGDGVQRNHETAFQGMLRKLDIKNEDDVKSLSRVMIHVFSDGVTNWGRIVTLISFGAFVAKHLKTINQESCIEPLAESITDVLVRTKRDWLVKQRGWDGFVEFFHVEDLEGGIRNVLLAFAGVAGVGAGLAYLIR
Sequence of Bcl-2-like protein 1 (Q07817 whole entry, the tested form may be a part): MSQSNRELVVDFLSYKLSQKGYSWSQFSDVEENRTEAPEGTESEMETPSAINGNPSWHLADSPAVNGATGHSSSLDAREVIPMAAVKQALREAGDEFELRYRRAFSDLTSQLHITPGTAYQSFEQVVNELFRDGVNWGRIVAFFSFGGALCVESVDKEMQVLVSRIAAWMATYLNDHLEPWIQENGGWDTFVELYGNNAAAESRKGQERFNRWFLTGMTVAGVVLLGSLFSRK
Sequence of NADPH oxidase 1 (Q9Y5S8 whole entry): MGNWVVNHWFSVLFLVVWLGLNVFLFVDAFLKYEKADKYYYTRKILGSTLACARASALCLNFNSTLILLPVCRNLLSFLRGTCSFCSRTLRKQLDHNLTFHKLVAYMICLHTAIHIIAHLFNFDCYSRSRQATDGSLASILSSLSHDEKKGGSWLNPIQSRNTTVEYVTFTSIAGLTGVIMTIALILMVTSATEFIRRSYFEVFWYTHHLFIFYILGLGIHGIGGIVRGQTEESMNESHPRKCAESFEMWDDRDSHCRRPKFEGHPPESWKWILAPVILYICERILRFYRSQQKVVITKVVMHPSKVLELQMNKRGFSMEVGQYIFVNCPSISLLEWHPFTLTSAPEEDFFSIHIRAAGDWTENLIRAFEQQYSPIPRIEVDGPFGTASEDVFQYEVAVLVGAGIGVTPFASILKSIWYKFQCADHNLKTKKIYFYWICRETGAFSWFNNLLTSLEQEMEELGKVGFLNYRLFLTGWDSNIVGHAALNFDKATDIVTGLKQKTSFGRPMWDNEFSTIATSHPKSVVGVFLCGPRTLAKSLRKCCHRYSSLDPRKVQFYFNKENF

In the case of `Cc1ccc(C)c(S(=O)(=O)Nc2ccc3oc(C)c(C(=O)O)c3c2)c1`, the IC50 [1] is reported as 18.2 µM (not active), the IC50 (Bcl-2-like protein 1) is reported as 93.3 µM (not active) and the IC50 [2] is reported as 3.21 µM (active). The IC50 [3] was > 66.6 µM (inactive), the IC50 [4] was 11.3 µM (active) and the AC50 (Caspase-6) was 3.67 µM (active).
In the case of `COCCNC(=O)/C(C#N)=C/C=C/c1ccccc1[N+](=O)[O-]`, the CC50 (Vero [5]) is reported as 13.4 µM (active), the CC50 (Vero [6]) is reported as 16 µM (active) and the EC50 [7] is reported as > 91.1 µM (inactive). For the same molecule, the EC50 [8] was > 91.1 µM (inactive).
With `O=C1C(Cl)=C(N2CCN(CCO)CC2)C(=O)N1c1cccc([N+](=O)[O-])c1` the IC50 [9] was > 100 µM (not active), the IC50 (Bcl-2-related protein A1 [10]) was 10.8 µM (active) and the IC50 (Bcl-2-related protein A1 [11]) was 30.9 µM (active).
For `C=CC(=O)Nc1ccc2c(c1)Sc1ccccc1N2C`, the IC50 (NADPH oxidase 1) was 2.38 µM (active).
For `Cc1ccccc1NC(=O)Nc1ccc(C(F)(F)F)cc1`, the IC50 [12] was > 100 µM (active).
In the case of `Cc1c2ccncc2c(C)c2c1[nH]c1ccccc12` [ELLIPTECINE], the EC50 [13] is reported as 2.25 µM (active), the EC50 [14] is reported as > 120 µM (not active) and the EC50 (Streptokinase A) is reported as > 150 µM (not active). The EC50 [15] was 6.17 µM (active), the EC50 [16] was 2.4 µM (active) and the EC50 [17] was 0.177 µM (active). For the same molecule, the EC50 (Galanin receptor type 2) was > 55.7 µM (not active), the EC50 [18] was 0.117 µM (active) and the EC50 (Streptococcus) was 7.7 µM (active). For the same molecule, the EC50 [19] was 3.99 µM (active), the AC50 (INS1) was 2.12 µM (active) and the AC50 [20] was 0.231 µM (active). The GI50 (P388/ADR) was 0.824 µM (active), the GI50 (SN12K1) was 0.56 µM (active) and the GI50 (P388) was 0.383 µM (active). The AC50 (Cytochrome P450 2C9) was 39.8 µM (inconclusive).
